# Data from patent publication US11026940B2, “Compositions for the mobilization, homing, expansion and differentiation of stem cells and methods of using the same” (Ampio Pharmaceuticals, Inc., priority 2013, dated 2021).
# Values joined by “and” are separate entries in the source; they are usually repeats but may differ in a detail not shown here. Equal entries are not always repeated.
# What was measured:
# Collagen 2A1 = assay: Stem cell chondrogenesis, real time PCR gene expression: Collagen 2A1; assay type: cell-based, human; settings: for Cp Coll / Mean regulation: Collagen 2A1; for Cp Coll / Mean regulation / Mean ΔCp: Day 22; for Mean regulation: vs saline; for Mean ΔCp: Collagen 2A1 vs GAPDH; for regulation, Collagen 2A1 / Mean regulation, Collagen 2A1: fold regulation vs saline; for regulation, Collagen 2A1 / ΔCp, Collagen 2A1 / 2^-ΔΔCp vs saline, Collagen 2A1 / ΔΔCp vs saline, Collagen 2A1: single replicate well; for Mean regulation, Collagen 2A1 / Mean ΔCp, Collagen 2A1: triplicate wells; for ΔCp, Collagen 2A1: human bone marrow MSC, chondrogenic medium + TGF beta 3; for ΔCp, Collagen 2A1 / 2^-ΔΔCp vs saline, Collagen 2A1 / ΔΔCp vs saline, Collagen 2A1 / Mean ΔCp, Collagen 2A1: vs Actin
# Experimental: • Stem Cells: Bone marrow derived human mesenchymal stem cells: Passage 5 Bone marrow derived human mesenchymal stem cells (HUXMA-01001, Cyagen Biosciences, Sunnyvale Calif.) • Mesenchymal Stem Cell Chondrogenic Differentiation medium (GUXMX-90041, Cyagen Biosciences, Sunnyvale Calif.) • TheraPEAK MSCGM chemically defined Stem cell medium (190632 Lonza) • 1 mM Dexamethasone acetate and mifepristone in absolute ethanol (Sigma) • Saline or 0.9% Sodium chloride for injection ZR Flush (Excelsior Medical, Neptune N.J.) • Sterile filtered 0.6 mM sodium caprylate in saline (sigma) • Sterile filtered 3 mM NAT in saline (sigma); To prepare, heat at 60° C. for 30 minutes then sonicate for 5 minutes. • Sterile filtered 10 mM DADKP in saline • 0.2 μM syringe filters • Hepes buffered saline, Trypsin/EDTA, Trypsin neutralizing solution (Lonza reagent pack) • 182 cm2 tissue culture flasks • pipettes and sterile tips • Tissue culture hood, humidified CO2 incubator, water or bead bath • 24 well tissue culture plates • Qiagen RNeasy plus spin columns (Qiagen 74134) • Qiagen RT2 qPCR primer pairs for Collagen 2A1, MMP13, TIMP1, Aggrecan, GAPDH, and Actin B • Roche Sybr green I master mix and Invitrogen Superscript VILO master mix. • Roche 480 lightcycler
# The following stock drug treatment solutions were prepared in saline for injection and warmed to 37° C. in bath: • 4 μM dexamethasone • 4 μM mifepristone • 3 mM NAT • 0.6 mM caprylate • 80 μM DADKP • Mix of 3 mM NAT, 0.6 mM caprylate, 80 μM DADKP (“Ampion” mix)
# Cyagen Chondrogenic Differentiation medium was prepared by manufacturer protocols but excluding dexamethasone and TGF beta 3 supplements, and warmed to 37° C. in bath.
# The treatment protocol included expanding 5 HUXMA stem cells in 182 cm^2 flasks containing 40 mls TheraPEAK™ MSCGM to 80-90% confluence. Cells were trypsinized from the flasks and a 1.0×10^7 cell suspension of HUXMA stem cells was warmed in Cyagen Chondrogenic Differentiation medium. 20 μl of warmed cell suspension was spotted in the middle of each well of a 24-well tissue culture plate (200,000 cells per spot), and incubated at 37° C. and 5% CO2 for one hour.
# The plates were removed from the incubator and an additional 720 μl chondrogenic medium was added to each well. 250 μl saline, or drug solutions were added to the appropriate wells in triplicate (bringing the final drug dilution to one-quarter of the stock drug treatment solution concentrations). 10 μl of TGF beta 3 solution (supplied by Cyagen) was added to each well, and the plates were returned to the incubator.
# Medium exchanges were performed every 3-4 days by aspirating the medium from the wells and replacing with fresh chondrogenic medium, diluted stocks, and TGF beta 3, as described above.
# RNA isolation and analysis was conducted for all plates as follows at days 7, 14, and 22 post treatment (with the described medium exchanges). […] Qiagen RNeasy plus lysis buffer (with 2mercaptoethanol) was added to each well and gently shaken for 10 minutes. The lysed cell suspensions from each well were transferred to Qiashredder columns and spun at 14,000 rpm for 2 minutes. RNA isolation proceeded by RNeasy™ plus manufacturer's protocol. RNA was eluted from the Qiagen columns using 25 μl RNase free water.
# cDNA synthesis and real time PCR was conducted as follows. First strand synthesis of cDNA from all samples was performed in 20 μl total volume using 10 μl isolated RNA. All cDNA reactions were then diluted with 30 μl nuclease free water. Real time PCR was then performed using 5 μl diluted cDNA, Roche Syber green master mix, and Qiagen RT^2 gPCR™ primer pairs in 20 μl total reaction volume. Relative gene expression was determined by delta deta Ct method.
# MMP13 = assay: Stem cell chondrogenesis, real time PCR gene expression: MMP13; assay type: cell-based, human; settings: for Mean regulation: vs saline; for Mean ΔCp / ΔCp: MMP13 vs GAPDH
# SOX9 = assay: Stem cell chondrogenesis, real time PCR gene expression: SOX9; assay type: cell-based, human; settings: Day 14
# Aggrecan = assay: Stem cell chondrogenesis, real time PCR gene expression: Aggrecan; assay type: cell-based, human; settings: for Mean ΔCp / ΔCp: Aggrecan vs Actin; for Mean ΔCp / ΔCp / Cp Agg / Mean regulation: Day 22; for Cp Agg / Mean regulation: Aggrecan; for Mean regulation: vs saline
# TIMP1 = assay: Stem cell chondrogenesis, real time PCR gene expression: TIMP1; assay type: cell-based, human; settings: Day 22; for Mean ΔCp / ΔCp: TIMP1 vs Actin
# [1] = test system: Bone marrow derived human mesenchymal stem cells; assay: Visual observation of cell aggregates in chondrogenic culture; assay type: cell-based; settings: day seven
# [2] = Day 7, vs Actin, single replicate well
# [3] = vs Actin, single replicate well
compound,measurement,setting,value
"C[C@@H]1NC(=O)[C@H](CC(=O)O)NC1=O [DADKP, aspartyl-alanyl diketopiperazine]",Cp Coll,Collagen 2A1; Table 12,27.41 and 25.44 and 22.94
same,Cp Coll,Collagen 2A1; Table 16,27.41 and 25.44 and 22.94
same,Mean regulation,Collagen 2A1; Table 12,136.83
same,Mean regulation,Collagen 2A1; Table 16,136.83
same,Mean ΔCp,Collagen 2A1; Table 12,7.223
same,Mean ΔCp,Collagen 2A1; Table 16,7.223
same,"regulation, Collagen 2A1",Collagen 2A1; Day 7,1.65 and −2.28 and −1.25
same,"Mean regulation, Collagen 2A1",Collagen 2A1; Day 7,−0.62
same,"ΔCp, Collagen 2A1",Collagen 2A1; Day 7,6.01 and 7.92 and 7.05
same,"2^-ΔΔCp vs saline, Collagen 2A1",Collagen 2A1; Day 7,1.651 and 0.4393 and 0.8029
same,"ΔΔCp vs saline, Collagen 2A1",Collagen 2A1; Day 7,−0.72 and 1.187 and 0.317
same,"Mean ΔCp, Collagen 2A1",Collagen 2A1; Day 7,6.993
same,"regulation, Collagen 2A1",Collagen 2A1; Day 14,1.48 and 2.56 and −1.02
same,"Mean regulation, Collagen 2A1",Collagen 2A1; Day 14,1.01
same,"ΔCp, Collagen 2A1",Collagen 2A1; Day 14,10.49 and 9.7 and 11.09
same,"2^-ΔΔCp vs saline, Collagen 2A1",Collagen 2A1; Day 14,1.4811 and 2.5609 and 0.9772
same,"ΔΔCp vs saline, Collagen 2A1",Collagen 2A1; Day 14,−0.57 and −1.36 and 0.033
same,"Mean ΔCp, Collagen 2A1",Collagen 2A1; Day 14,10.43
same,collagen transcription (in words),Collagen 2A1; day 22,greatly enhanced
same,increase in transcription of Collagen 2a1,Collagen 2A1; day 22,2000 fold
same,collagen transcription (in words),"Collagen 2A1; day fourteen, compared with the control in a pellet",still elevated
same,"regulation, MMP13","MMP13; Day 7, fold regulation vs saline, single replicate well",−1.29 and 1.03 and −1.76
same,"Mean regulation, MMP13","MMP13; Day 7, fold regulation vs saline, triplicate wells",−0.67
same,"ΔCp, MMP13","MMP13; Day 7, human bone marrow MSC, chondrogenic medium + TGF beta 3, vs Actin, single replicate well",5 and 4.6 and 5.45
same,"2^-ΔΔCp vs saline, MMP13",MMP13; [2],0.7774 and 1.0257 and 0.5691
same,"ΔΔCp vs saline, MMP13",MMP13; [2],0.363 and −0.04 and 0.813
same,"Mean ΔCp, MMP13","MMP13; Day 7, vs Actin, triplicate wells",5.017
same,"Cp, MMP13","MMP13; MMP13, Day 22, Table 12",20.34 and 21.41 and 21.25
same,2^-ΔΔCp vs saline,"MMP13; MMP13, Day 22, Table 16",1.1277 and 1.0163 and 0.9352
same,"Cp, MMP13","MMP13; MMP13, Day 22, Table 16",20.34 and 21.41 and 21.25
same,Mean regulation,"MMP13; MMP13, Day 22, Table 12",0.36
same,Mean regulation,"MMP13; MMP13, Day 22, Table 16",0.36
same,Mean ΔCp,"MMP13; Day 22, Table 12",2.96
same,ΔCp,"MMP13; Day 22, Table 12",2.82 and 2.97 and 3.09
same,Mean ΔCp,"MMP13; Day 22, Table 16",2.96
same,ΔCp,"MMP13; Day 22, Table 16",2.82 and 2.97 and 3.09
same,"regulation, SOX9","SOX9; fold regulation vs saline, single replicate well",−1.59 and 1.07 and 1.10
same,"Mean regulation, SOX9","SOX9; fold regulation vs saline, triplicate wells",0.19
same,"ΔCp, SOX9","SOX9; human bone marrow MSC, chondrogenic medium + TGF beta 3, vs Actin, single replicate well",7.85 and 7.08 and 7.04
same,"2^-ΔΔCp vs saline, SOX9",SOX9; [3],0.6285 and 1.0718 and 1.1019
same,"ΔΔCp vs saline, SOX9",SOX9; [3],0.67 and −0.1 and −0.14
same,"Mean ΔCp, SOX9","SOX9; vs Actin, triplicate wells",7.323
same,Mean ΔCp,Aggrecan; Table 12,7.28
same,ΔCp,Aggrecan; Table 12,9.06 and 6.83 and 5.95
same,Mean ΔCp,Aggrecan; Table 16,7.28
same,ΔCp,Aggrecan; Table 16,9.06 and 6.83 and 5.95
same,Cp Agg,Aggrecan; Table 12,24.7 and 23.56 and 22.36
same,Cp Agg,Aggrecan; Table 16,24.7 and 23.56 and 22.36
same,Mean regulation,Aggrecan; Table 12,10.65
same,Mean regulation,Aggrecan; Table 16,10.65
same,increase in transcription of aggrecan,Aggrecan; day 22,20 fold
same,Cp TIMP1,"TIMP1; TIMP1, Table 12",18.64 and 19.9 and 19.36
same,2-^ΔΔCp vs saline,"TIMP1; TIMP1, Table 16",1.7013 and 1.5122 and 1.7613
same,Cp TIMP1,"TIMP1; TIMP1, Table 16",18.64 and 19.9 and 19.36
same,Mean regulation,"TIMP1; TIMP1, vs saline, Table 12",1.66
same,regulation,"TIMP1; TIMP1, vs saline, Table 12",1.70 and 1.51 and 1.76
same,regulation,"TIMP1; TIMP1, vs saline, Table 16",1.70 and 1.51 and 1.76
same,Mean ΔCp,TIMP1; Table 12,3.04
same,ΔCp,TIMP1; Table 12,3 and 3.17 and 2.95
same,Mean ΔCp,TIMP1; Table 16,3.04
same,ΔCp,TIMP1; Table 16,3 and 3.17 and 2.95
same,form of the culture (discs or pellets),[1],pulled into loose pellets
